Broadly, the IC50 is the concentration that inhibits the measured activity by half.

Starred links: 1 amine or outer side, 2 acyl side, 3 side chain; linkers in the order of their positions; H or OH if unused. Positions of bridges follow the written chain, without caps; N, C: chain ends. Non-standard residues stand in square brackets, D forms with d. Residues, ends and D or L forms follow the SMILES beside them. ξ: configuration not given here. Phe(4-COOH) = N[C@@H](Cc1ccc(C(=O)O)cc1)C(=O)O; βAsp = O=C(O)[C@H](CC(=O)[*:2])N[*:1]; NMeThr(3ξ) = CN[C@H](C(=O)O)C(C)O; Ahp(2) = CCCCC[C@H](N)C(=O)O; NMeNle = CCCC[C@H](NC)C(=O)O; Tle = CC(C)(C)[C@H](N)C(=O)O; NMeV = CN[C@H](C(=O)O)C(C)C; NMeS = CN[C@@H](CO)C(=O)O; NHexGly = CCCCCCNCC(=O)O; Orn = NCCC[C@H](N)C(=O)O; Aun = NCCCCCCCCCCC(=O)O; AEEA = NCCOCCOCC(=O)O

Here are results for twelve molecules from patent US20240218022A1, “ANTI-VISTA MACROCYCLIC PEPTIDES AND COMPOSITIONS” (BRISTOL-MYERS SQUIBB COMPANY, priority 2022, published 2024).

For this test, the target named is T1, mouse VISTA (mVISTA) (Mus musculus, UniProt Q9D659).
T1 construct: expressed in transfected cells; host or cells: Human embryonic kidney 293T cells
T1 sequence (Q9D659 33-308): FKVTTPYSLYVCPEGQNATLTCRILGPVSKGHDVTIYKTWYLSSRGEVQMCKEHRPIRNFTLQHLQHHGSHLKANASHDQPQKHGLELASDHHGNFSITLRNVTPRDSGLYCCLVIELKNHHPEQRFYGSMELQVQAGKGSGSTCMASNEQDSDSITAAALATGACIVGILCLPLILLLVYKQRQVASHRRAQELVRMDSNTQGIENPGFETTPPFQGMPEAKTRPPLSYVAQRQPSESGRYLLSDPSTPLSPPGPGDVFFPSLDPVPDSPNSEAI
Description: Cell-Based Binding High-Content Assay For mVISTA (HC CBA mVISTA). To be noted: cell-based binding high-content assay, mVISTA; read-out: HC CBA miPr ISTA IC50. The procedure, abridged:
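Competition of compound with a biotinylated peptide (final 2 nM, 30 min at RT) for binding to mVISTA on 293T cells, run under no-wash or wash (1 h compound preincubation then removal) formats. Readout by Alexa 647–streptavidin imaging on a high-content platform; four-parameter logistic fit gave IC50.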
Regarding `CCCCCCN1CC(=O)N[C@@H](Cc2ccc(O)cc2)C(=O)N[C@@H](CC(C)C)C(=O)N[C@@H](CC(N)=O)C(=O)N[C@@H](CCCNC(=N)N)C(=O)N(C)[C@@H](CO)C(=O)N[C@@H](CCCCC)C(=O)N2CCC[C@H]2C(=O)N[C@@H](C(C)(C)C)C(=O)N[C@@H](CC(=O)O)C(=O)N[C@H](C(=O)N[C@@H](CC(=O)NCCOCCOCC(=O)N[C@@H](CC(=O)O)C(=O)NCCOCCOCC(=O)NCCCCCCCCCCC(=O)O)C(=O)O)CSCC(=O)N[C@@H](Cc2ccccc2)C(=O)N[C@@H](Cc2c[nH]c3ccccc23)C(=O)N[C@@H](CC(=O)O)C1=O` [compound 2034] ({CH2CO}-FWD[NHexGly]YLNR[NMeS][Ahp(2)]P[Tle]DC[βAsp][AEEA]D[AEEA][Aun]-OH; thioether N-14), the half-maximal inhibitory concentration (IC50) was found to be 43.5 nM.

For `CCCCCCN1CC(=O)N[C@@H](Cc2ccc(O)cc2)C(=O)N[C@@H](CC(C)C)C(=O)N[C@@H](CC(N)=O)C(=O)N[C@@H](CCCNC(=N)N)C(=O)N(C)[C@@H](CO)C(=O)N[C@@H](CCCCC)C(=O)N2CCC[C@H]2C(=O)N[C@@H](C(C)(C)C)C(=O)N[C@@H](CC(=O)O)C(=O)N[C@H](C(=O)N[C@@H](CC(=O)NCCOCCOCC(=O)N[C@@H](CC(=O)O)C(=O)NCCOCCOCC(=O)NCCCCCCCCCCC(=O)O)C(=O)O)CSCC(=O)N[C@@H](Cc2ccccc2)C(=O)N[C@@H](Cc2ccc(O)cc2)C(=O)N[C@@H](CC(=O)O)C1=O` [compound 2035] ({CH2CO}-FYD[NHexGly]YLNR[NMeS][Ahp(2)]P[Tle]DC[βAsp][AEEA]D[AEEA][Aun]-OH; thioether N-14), the IC50 amounted to 37.1 nM.

With `CCCCCCN1CC(=O)N[C@@H](Cc2ccc(O)cc2)C(=O)N[C@@H](CC(C)C)C(=O)N[C@@H](CC(N)=O)C(=O)N[C@@H](CCCNC(=N)N)C(=O)N(C)[C@@H](C(C)O)C(=O)N[C@@H](CCCCC)C(=O)N2CCC[C@H]2C(=O)N[C@@H](C(C)(C)C)C(=O)N[C@@H](CO)C(=O)N[C@H](C(=O)N[C@@H](CC(=O)NCCOCCOCC(=O)N[C@@H](CC(=O)O)C(=O)NCCOCCOCC(=O)NCCCCCCCCCCC(=O)O)C(=O)O)CSCC(=O)N[C@@H](Cc2ccccc2)C(=O)N[C@@H](Cc2ccc(O)cc2)C(=O)N[C@@H](CC(=O)O)C1=O` (stereo partly drawn) [compound 2036] ({CH2CO}-FYD[NHexGly]YLNR[NMeThr(3ξ)][Ahp(2)]P[Tle]SC[βAsp][AEEA]D[AEEA][Aun]-OH; thioether N-14), the IC50 was 49 nM.

For the molecule `CCCCCCN1CC(=O)N[C@@H](Cc2ccc(O)cc2)C(=O)N[C@@H](CC(C)C)C(=O)N[C@@H](CC(N)=O)C(=O)N[C@@H](CCCNC(=N)N)C(=O)N(C)[C@@H](C(C)C)C(=O)N[C@@H](CCCCC)C(=O)N2CCC[C@H]2C(=O)N[C@@H](C(C)(C)C)C(=O)N[C@@H](CC(=O)O)C(=O)N[C@H](C(=O)N[C@@H](CC(=O)NCCOCCOCC(=O)N[C@@H](CC(=O)O)C(=O)NCCOCCOCC(=O)NCCCCCCCCCCC(=O)O)C(=O)O)CSCC(=O)N[C@@H](Cc2ccccc2)C(=O)N[C@@H](Cc2ccc(O)cc2)C(=O)N[C@@H](CC(=O)O)C1=O` [compound 2037] ({CH2CO}-FYD[NHexGly]YLNR[NMeV][Ahp(2)]P[Tle]DC[βAsp][AEEA]D[AEEA][Aun]-OH; thioether N-14), the IC50 is 34.4 nM.

As to `CCCCCCN1CC(=O)N[C@@H](Cc2ccc(O)cc2)C(=O)N[C@@H](CC(C)C)C(=O)N[C@@H](CC(N)=O)C(=O)N[C@@H](CCCNC(=N)N)C(=O)N(C)[C@@H](C(C)C)C(=O)N[C@@H](CCCCC)C(=O)N2CCC[C@H]2C(=O)N[C@@H](C(C)(C)C)C(=O)N[C@@H](CO)C(=O)N[C@H](C(=O)N[C@@H](CC(=O)NCCOCCOCC(=O)N[C@@H](CC(=O)O)C(=O)NCCOCCOCC(=O)NCCCCCCCCCCC(=O)O)C(=O)O)CSCC(=O)N[C@@H](Cc2ccccc2)C(=O)N[C@@H](Cc2c[nH]c3ccccc23)C(=O)N[C@@H](CC(=O)O)C1=O` [compound 2039] ({CH2CO}-FWD[NHexGly]YLNR[NMeV][Ahp(2)]P[Tle]SC[βAsp][AEEA]D[AEEA][Aun]-OH; thioether N-14), the half-inhibitory concentration (IC50) was 23.8 nM.

For the molecule `CCCCCCN1CC(=O)N[C@@H](Cc2ccc(O)cc2)C(=O)N[C@@H](CC(C)C)C(=O)N[C@@H](CC(N)=O)C(=O)N[C@@H](CCCNC(=N)N)C(=O)N(C)[C@@H](C(C)C)C(=O)N[C@@H](CCCCC)C(=O)N2CCC[C@H]2C(=O)N[C@@H](C(C)(C)C)C(=O)N[C@@H](CC(=O)O)C(=O)N[C@H](C(=O)N[C@@H](CC(=O)NCCOCCOCC(=O)N[C@@H](CC(=O)O)C(=O)NCCOCCOCC(=O)NCCCCCCCCCCC(=O)O)C(=O)O)CSCC(=O)N[C@@H](Cc2ccccc2)C(=O)N[C@@H](Cc2c[nH]c3ccccc23)C(=O)N[C@@H](CC(=O)O)C1=O` [compound 2040] ({CH2CO}-FWD[NHexGly]YLNR[NMeV][Ahp(2)]P[Tle]DC[βAsp][AEEA]D[AEEA][Aun]-OH; thioether N-14), the IC50 came out at 40.7 nM.

`CCCCCCN1CC(=O)N[C@@H](Cc2ccc(O)cc2)C(=O)N[C@@H](CC(C)C)C(=O)N[C@@H](CC(N)=O)C(=O)N[C@@H](CCCNC(=N)N)C(=O)N(C)[C@@H](C(C)C)C(=O)N[C@@H](CCCCC)C(=O)N2CCC[C@H]2C(=O)N[C@@H](C(C)(C)C)C(=O)N[C@@H](CO)C(=O)N[C@H](C(=O)N[C@@H](CC(=O)NCCOCCOCC(=O)N[C@@H](CC(=O)O)C(=O)NCCOCCOCC(=O)NCCCCCCCCCCC(=O)O)C(=O)O)CSCC(=O)N[C@@H](Cc2ccccc2)C(=O)N[C@@H](Cc2ccc(O)cc2)C(=O)N[C@@H](CC(=O)O)C1=O` [compound 2041] ({CH2CO}-FYD[NHexGly]YLNR[NMeV][Ahp(2)]P[Tle]SC[βAsp][AEEA]D[AEEA][Aun]-OH; thioether N-14): the IC50 turned out to be 29.7 nM.

Take `CCCCCCN1CC(=O)N[C@@H](Cc2ccc(O)cc2)C(=O)N[C@@H](CC(C)C)C(=O)N[C@@H](CC(N)=O)C(=O)N[C@@H](CCCNC(=N)N)C(=O)N(C)[C@@H](C(C)O)C(=O)N[C@@H](CCCCC)C(=O)N2CCC[C@H]2C(=O)N[C@@H](C(C)(C)C)C(=O)N[C@@H](CC(=O)O)C(=O)N[C@H](C(=O)N[C@@H](CC(=O)NCCOCCOCC(=O)N[C@@H](CC(=O)O)C(=O)NCCOCCOCC(=O)NCCCCCCCCCCC(=O)O)C(=O)O)CSCC(=O)N[C@@H](Cc2ccccc2)C(=O)N[C@@H](Cc2c[nH]c3ccccc23)C(=O)N[C@@H](CC(=O)O)C1=O` (stereo partly drawn) [compound 2042] ({CH2CO}-FWD[NHexGly]YLNR[NMeThr(3ξ)][Ahp(2)]P[Tle]DC[βAsp][AEEA]D[AEEA][Aun]-OH; thioether N-14): the IC50 is 30.8 nM.

For `CCCCCCN1CC(=O)N[C@@H](Cc2ccc(O)cc2)C(=O)N[C@@H](CC(C)C)C(=O)N[C@@H](CC(N)=O)C(=O)N[C@@H](CCCN)C(=O)N(C)[C@@H](CO)C(=O)N[C@@H](CCCCC)C(=O)N2CCC[C@H]2C(=O)N[C@@H](C(C)(C)C)C(=O)N[C@@H](CC(=O)O)C(=O)N[C@H](C(=O)N[C@@H](CC(=O)NCCOCCOCC(=O)N[C@@H](CC(=O)O)C(=O)NCCOCCOCC(=O)NCCCCCCCCCCC(=O)O)C(=O)O)CSCC(=O)N[C@@H](Cc2ccccc2)C(=O)N[C@@H](Cc2ccc(O)cc2)C(=O)N[C@@H](CC(=O)O)C1=O` [compound 2044] ({CH2CO}-FYD[NHexGly]YLN[Orn][NMeS][Ahp(2)]P[Tle]DC[βAsp][AEEA]D[AEEA][Aun]-OH; thioether N-14), the IC50 was 41.2 nM.

In the case of `CCCCCCN1CC(=O)N[C@@H](Cc2ccc(O)cc2)C(=O)N[C@@H](CC(C)C)C(=O)N[C@@H](CC(N)=O)C(=O)N[C@@H](CCCN)C(=O)N(C)[C@@H](CCCC)C(=O)N[C@@H](CCCCC)C(=O)N2CCC[C@H]2C(=O)N[C@@H](C(C)(C)C)C(=O)N[C@@H](CO)C(=O)N[C@H](C(=O)N[C@@H](CC(=O)NCCOCCOCC(=O)N[C@@H](CC(=O)O)C(=O)NCCOCCOCC(=O)NCCCCCCCCCCC(=O)O)C(=O)O)CSCC(=O)N[C@@H](Cc2ccccc2)C(=O)N[C@@H](Cc2ccc(O)cc2)C(=O)N[C@@H](CC(=O)O)C1=O` [compound 2045] ({CH2CO}-FYD[NHexGly]YLN[Orn][NMeNle][Ahp(2)]P[Tle]SC[βAsp][AEEA]D[AEEA][Aun]-OH; thioether N-14), the IC50 amounted to 20.1 nM.

`CCCCCCN1CC(=O)N[C@@H](Cc2ccc(O)cc2)C(=O)N[C@@H](CCCCN)C(=O)N[C@@H](CC(N)=O)C(=O)N[C@@H](CCCNC(=N)N)C(=O)N(C)[C@@H](CCCC)C(=O)N[C@@H](CCCCC)C(=O)N2CCC[C@H]2C(=O)N[C@@H](C(C)(C)C)C(=O)N[C@@H](CO)C(=O)N[C@H](C(=O)N[C@@H](CC(=O)NCCOCCOCC(=O)N[C@@H](CC(=O)O)C(=O)NCCOCCOCC(=O)NCCCCCCCCCCC(=O)O)C(=O)O)CSCC(=O)N[C@@H](Cc2ccccc2)C(=O)N[C@@H](Cc2ccc(O)cc2)C(=O)N[C@@H](CC(=O)O)C1=O` [compound 2046] ({CH2CO}-FYD[NHexGly]YKNR[NMeNle][Ahp(2)]P[Tle]SC[βAsp][AEEA]D[AEEA][Aun]-OH; thioether N-14): the IC50 came out at 34.5 nM.

In the case of `CCCCCCN1CC(=O)N[C@@H](Cc2ccc(O)cc2)C(=O)N[C@@H](CC(C)C)C(=O)N[C@@H](CC(N)=O)C(=O)N[C@@H](CCCN)C(=O)N(C)[C@@H](CCCC)C(=O)N[C@@H](CCCCC)C(=O)N2CCC[C@H]2C(=O)N[C@@H](C(C)(C)C)C(=O)N[C@@H](CO)C(=O)N[C@H](C(=O)N[C@@H](CC(=O)NCCOCCOCC(=O)N[C@@H](CC(=O)O)C(=O)NCCOCCOCC(=O)NCCCCCCCCCCC(=O)O)C(=O)O)CSCC(=O)N[C@@H](Cc2ccc(C(=O)O)cc2)C(=O)N[C@@H](Cc2ccc(O)cc2)C(=O)N[C@@H](CC(=O)O)C1=O` [compound 2047] ({CH2CO}-[Phe(4-COOH)]YD[NHexGly]YLN[Orn][NMeNle][Ahp(2)]P[Tle]SC[βAsp][AEEA]D[AEEA][Aun]-OH; thioether N-14), the IC50 worked out at 48.8 nM.
